According to patent publication US5248677A, “Biogentic amine uptake inhibitors” (priority 1992, dated 1993):
Counter-ions that a name gives are not always drawn.

Key:
Assay type in all cases: biochemical, rat (Male Sprague-Dawley)
[1] = tested on: 5-HT (serotonin) uptake; assay: 5-HT (serotonin) uptake inhibition, synaptosomal preparation (cortex); conditions: 5-hydroxytryptamine, rat cortex synaptosomes, 0.1 μM tritiated amine, 37° C., 4 minutes
Procedure: (§1) For the purpose of identifying compounds as biogenic amine uptake inhibitors capable of interacting with the uptake carrier, ligand-carrier binding assays were carried out as an initial sceen.
(§2) Male Sprague-Dawley derived rats, weighing about 180-250 g each (purchased from Sasco Animal Laboratories, Oregon, Wis.) were sacrificed by decapitation. The brains were immediately removed, placed on a chilled glass plate and dissected according to a modification of the method of Glowinski and Iversen (J. Glowinski and L. L. Iversen, J Neurochem, 1966, 13: 655-669). First, the rhombencephalon was separated by a transverse section and discarded. The rest of the brain was divided into two portions by making another transverse section at the level of the optic chiasma. The hypothalamus, which was used for norepinephrine uptake studies, was removed from the posterior part by using the anterior commissure as the horizontal reference point and a line between the posterior hypothalamus and mammillary bodies as the caudal limit. The striatum, which was used for dopamine uptake studies, was also dissected from the posterior portion using the external wall of the lateral ventricle as the internal limit and the corpus collosum as the external limit. The frontal parts of the striatum were removed from the anterior portion of the cerebrum and combined with the striatal tissue from the posterior segment. The cortex, which was used for serotonin uptake studies, was composed of the rest of the anterior portion of the cerebrum and the cortical surfaces removed from the posterior segment. The hypothalamus and the striatum each weighed about 100 mg or slightly less, whereas the cortex weighed up to 800 mg. The tissues were placed in a cold Potter-Elvehjem glass homogenizer with 5 (cortex) or 10 (hypothalamus) or 20 (striatum) volumes of ice-cold 0.32M sucrose, pH 7, and homogenized by hand. The homogenate was centrifuged (on a Multifuge®, American Scientific Products) at 2500 rpm for 10 minutes in a refrigerated room (~4° C.). The supernatant fraction containing the synaptosomes was decanted, mixed thoroughly and kept on crushed ice for use in the uptake studies.
(§3) Uptake studies were conducted according to the method of Snyder and Coyle (S. H. Snyder and J. T. Coyle, J Pharmacol Exp Ther, 1969, 165: 78-86) with minor modifications. Usually a 0.1 mL aliquot of the synaptosomal preparation was incubated in a mixture of 0.75 mL of modified Krebs-Ringerbuffer, 0.05 mL of the drug being tested, and 0.1 mL of a 1 μM solution of the labeled (tritiated) amine (final concentration 0.1 μM), for a total volume of 1 mL. The modified Krebs-Ringer bicarbonate buffer used in these studies contained 118 mM sodium chloride, 4 mM potassium chloride, 1.3 mM calcium chloride, 1.12 mM potassium dihydrogen phosphate, 1.2 mM magnesium sulfate and 24 mM sodium bicarbonate, with the addition of 5 mM glucose, 0.15 mM disodium EDTA, 12.5 μM nialamide and 1 mM ascorbic acid. Uptake was initiated by the addition of the tritiated amine and the mixture was incubated at 37° C. in a Dubnoff Metabolic Shaking Incubator for 4 minutes. A preincubation period was not included since it had been reported that results were similar with and without preincubation of the synaptosomal preparation (G. Vosmer, et al. Biochem Pharmacol, 1980, 24: 2557-2562). Control incubations without the test drug were conducted at 37° C. to determine total uptake and at 0° C. (in a crushed ice bath) to correct for the diffusion of the tritiated amine into the synaptosomes and/or binding.
(§4) Filtration was used to terminate uptake and collect the synaptosomes (C. A. Csernansky, et al. J Pharmacol Methods, 1985, 13: 187-191). In the filtration technique, the incubation mixture was diluted with ice-cold 0.9% aqueous sodium chloride solution and filtered through GF/B glass microfiber filters (Whatman) under reduced pressure. […]

[2] = tested on: dopamine uptake; assay: DA (dopamine) uptake inhibition, synaptosomal preparation (striatum); conditions: rat striatum synaptosomes, 0.1 μM tritiated amine, 37° C., 4 minutes
Procedure: as §1, §2, §3, §4

[3] = tested on: norepinephrine uptake; assay: NE (norepinephrine) uptake inhibition, synaptosomal preparation (hypothalamus); conditions: rat hypothalamus synaptosomes, 0.1 μM tritiated amine, 37° C., 4 minutes
Procedure: as §1, §2, §3, §4

Structure (SMILES)	IC50 [1]	IC50 [2]	IC50 [3]	IC50 ([1]; hydrochloride)	IC50 ([2]; hydrochloride)	IC50 ([3]; hydrochloride)
Cc1cccc(CC2NCC3c4ccccc4CCC23)c1 (stereo not drawn) [Example 11, cis-2,3,3a,4,5,9b-Hexahydro-3-(3-methylphenyl)methyl-1H-benz[e]isoindole hydrochloride]	827 nM	5140 nM	238 nM			
CCN1CC2c3ccccc3CCC2C1Cc1cccc(C)c1 (stereo not drawn) [Example 13, cis-2 -Ethyl-2,3,3a,4,5,9b-hexahydro-3-(3-methylphenyl)methyl-1H-benz[e]isoindole hydrochloride]	507 nM	148 nM	18 nM			
COc1ccc(C)c2c1CCC1C2CN(C)C1Cc1ccccc1 (stereo not drawn) [Example 38, cis-2,9-Dimethyl-2,3,3a,4,5,9b-hexahydro-6-methoxy-3-phenylmethyl-1H-benz[e]isoindole hydrochloride]	3570 nM	1330 nM	261 nM			
COc1ccc2c(c1)CC[C@H]1[C@@H]2CN(C)[C@@H]1Cc1ccccc1 (relative stereo) [Example 8, cis-anti-2,3,3a,4,5,9b-Hexahydro-7-methoxy-2-methyl-3-phenylmethyl-1H-benz[e]isoindole methanesulfonic acid salt]	2700 nM	4700 nM	120 nM			
CN1CC2c3ccccc3CCC2C1Cc1ccccc1 (stereo not drawn) [Example 10, trans-2,3,3a,4,5,9b-Hexahydro-2-methyl-3-phenylmethyl-1H-benz[e]isoindole methanesulfonic acid salt]	13500 nM	6720 nM	454 nM			
COc1ccc2c(c1)CCC1C(Cc3ccccc3)NCC21 (stereo not drawn) [Example 6, trans-2,3,3a,4,5,9b-Hexahydro-7-methoxy-3-phenylmethyl-1H-benz[e]isoindole methanesulfonic acid salt]	6510 nM	10100 nM	543 nM			
CN1CC2c3ccccc3CCC2CCC1Cc1ccccc1 (single isomer, unassigned) [Example 75B, cis-2-Methyl-1,3,4,5,5a,6,7,11b-octahydro-3-phenylmethyl-2H-naphth[1,2-c]azepine hydrochloride]				4130 nM	2810 nM	513 nM
COc1ccc2c(c1)CCC1CC(Cc3ccccc3)N(C)CC21 (stereo not drawn) [Example 72, cis-8-Methoxy-2-methyl-1,2,3,4,4a,5,6,10b-octahydro-3-phenylmethyl-benz[f]isoquinoline hydrochloride]	5750 nM	1010 nM	64 nM			
COc1ccc2c(c1)CCC1C2CN(C)C1Cc1cccc(F)c1 (stereo not drawn) [Example 28, cis-3-(3-Fluorophenyl)methyl-2,3,3a,4,5,9b-hexahydro-7-methoxy-2-methyl-1H-benz[e]isoindole hydrochloride]				1870 nM	213 nM	78 nM
CC1C[C@H]2c3ccccc3CC[C@H]2CN1Cc1ccccc1 (relative stereo) [Example 71A, cis-2-Methyl-1,2,3,4,4a,5,6,10b-octahydro-3-phenylmethyl-benz[f]isoquinoline]	2120 nM	450 nM	9.8 nM			
CN1CC2c3ccc4c(c3CCC2C1Cc1cccc(F)c1)OCO4 (stereo not drawn) [Example 36, trans-3-(3-Fluorophenyl)methyl-2,3,3a,4,5,9b-hexahydro-2-methyl-6,7-methylenedioxy-1H-benz[e]isoindole methanesulfonic acid salt]	964 nM	952 nM	62 nM			
Fc1ccc(CC2NCC3c4ccccc4CCC23)cc1 (stereo not drawn) [Example 17, 3-(4-Fluorophenyl)methyl-2,3,3a,4,5,9b-hexahydro-1 H-benz[e]isoindole methanesulfonic acid salt]	11000 nM	9200 nM	665 nM			
CCN1CC2c3cccc(OC)c3CCC2C1Cc1ccccc1 (stereo not drawn) [Example 23, cis-2-Ethyl-2,3,3a,4,5,9 b-hexahydro-6-methoxy-3-phenylmethyl-1H-benz[e]isoindole methanesulfonic acid salt]	1430 nM	141 nM	28 nM			
COc1ccc2c(c1OC)CCC1C2CN(C)C1Cc1ccccc1 (stereo not drawn) [Example 32, cis-6,7-Dimethoxy-2,3,3a,4,5,9b-hexahydro-2-methyl-3-phenylmethyl-1H-benz[e]isoindole hydrochloride]	12700 nM	169 nM	113 nM			
COc1cccc2c1CCC1C2CN(C)C1Cc1ccccc1 (stereo not drawn) [Example 22, cis-2,3,3a,4,5,9 b-Hexahydro-6-methoxy-2-methyl-3-phenylmethyl-1H-benz[e]isoindole methanesulfonic acid salt]	3440 nM	368 nM	60 nM			
CN1CC2c3ccccc3CCC2CCC1Cc1ccccc1 (single isomer, unassigned) [Example 75A, cis-2-Methyl-1,3,4,5,5a,6,7,11b-octahydro-3-phenylmethyl-2H-naphth[1,2-c]azepine hydrochloride]				227 nM	444 nM	30 nM
COc1ccc2c(c1)CCC1C2CN(C)C1Cc1cccc(F)c1 (stereo not drawn) [Example 27, trans-3-(3-Fluorophenyl)methyl-2,3,3a,4,5,9b-hexahydro-7-methoxy-2-methyl-1H-benz[e]isoindole hydrochloride]			189 nM	2080 nM	4590 nM	
CN1CC2c3ccccc3CCC2C1Cc1cccc(Cl)c1 (single isomer, unassigned) [Example 47, 3-(3-Chlorophenyl)methyl-2,3,3a,4,5,9b-hexahydro-2-methyl-1H-benz[e]isoindole hydrochloride]	1260 nM	225 nM	41 nM			
COc1ccc2c(c1)CCC1C(Cc3ccccc3)NCC21 (mixture of isomers) [Example 1, cis/trans 2,3,3a,4,5,9b-Hexahydro-7-methoxy-3-phenylmethyl-1H-benz[e]isoindole hydrochloride]				7290 nM	7620 nM	524 nM
COc1ccc2c(c1)CCC1C(Cc3cccc(F)c3)NCC21 (stereo not drawn) [Example 26, trans-3-(3-Fluorophenyl)methyl-2,3,3a,4,5,9b-hexahydro-7-methoxy-1H-benz[e]isoindole hydrochloride]	2260 nM	9040 nM	603 nM			
Cc1cccc(CC2C3CCc4ccccc4C3CN2C)c1 (stereo not drawn) [Example 12, cis-2,3,3a,4,5,9b-Hexahydro-2-methyl-3-(3-methylphenyl)methyl-1H-benz[e]isoindole hydrochloride]	1780 nM	571 nM	37 nM			
COc1ccc2c(c1)CCC1C2CN(C)C1Cc1ccccc1 (stereo not drawn) [Example 7, trans-2,3,3a,4,5,9b-Hexahydro-7-methoxy-2-methyl-3-phenylmethyl-1H-benz[e]isoindole]	12200 nM	13400 nM	322 nM			
COc1ccc2c(c1OC)CCC1C(Cc3ccccc3)NCC21 (stereo not drawn) [Example 31, hydrochloride]	14000 nM	5420 nM	592 nM			
CCN1CC2c3cccc(OC)c3CCC2C1Cc1cccc(F)c1 (stereo not drawn) [Example 25, cis-2-Ethyl-3-(3-fluorophenyl)methyl-2,3,3a,4,5,9b-hexahydro-6-methoxy-1H-benz[e]isoindole hydrochloride]	1900 nM	197 nM	27 nM			
